The term melting point denotes the temperature, or range, at which the solid turns liquid. Take `CS(=O)(=O)Nc1cccc(Nc2nc(N3CCC[C@H]3CO)c3nc[nH]c3n2)c1` [Example 3, N-{3-[6-((S)-2-Hydroxymethyl-pyrrolidin-1-yl)-9H-purin-2-ylamino]-phenyl}-methanesulfonamide]: the melting point was 192 to 197 °C.

`C=CS(=O)(=O)Nc1cccc(Nc2nc(N[C@H](C)C(C)(C)C)c3nc[nH]c3n2)c1` [Example 97, Ethenesulfonic acid {3-[6-((R)-1,2,2-trimethyl-propylamino)-9H-purin-2-ylamino]-phenyl}-amide]: the melting point was in the range of 133 to 136 °C.

`CC(C)N(CCNc1nc(Nc2cccc(NS(C)(=O)=O)c2)nc2[nH]cnc12)C(C)C` [Example 5, N-(3-{6-[2-Diisopropylamino-ethylamino]-9H-purin-2-ylamino]-phenyl}-methanesulfonamide]: the melting point fell in the range of 226 to 230 °C.

Turning to `CS(=O)(=O)Nc1cccc(Nc2nc(N3CCCC3)c3nc[nH]c3n2)c1` [Example 14, N-[3-(6-Pyrrolidin-1-yl-9H-purin-2-ylamino)-phenyl]-methanesulfonamide], the melting point lay within 164 to 168 °C.

On to `CC(C)Nc1nc(Nc2cccc(NS(C)(=O)=O)c2)nc2[nH]cnc12` [Example 2, N-[3-(6-Isopropylamino-9H-purin-2-ylamino)-phenyl]-methanesulfonamide], for which the melting point was 161 to 165 °C.

`CN(C)CCNc1nc(Nc2cccc(NS(C)(=O)=O)c2)nc2[nH]cnc12` [Example 6, N-(3-{6-[2-Dimethylamino-ethylamino]-9H-purin-2-ylamino]-phenyl}-methanesulfonamide] came in with a melting point of 191 to 195 °C.

Take `CS(=O)(=O)Nc1cccc(Nc2nc(OC3CCOC3)c3nc[nH]c3n2)c1` (stereo not drawn) [Example 25, N-{3-[6-(Tetrahydro-furan-3-yloxy)-9H-purin-2-ylamino]-phenyl}-methanesulfonamide]: the melting point was in the range of 255 to 257 °C.

The compound `CS(=O)(=O)Nc1cccc(Nc2nc(NC3CCC3)c3nc[nH]c3n2)c1` [Example 1, N-[3-(6-Cyclobutylamino-9H-purin-2-ylamino)-phenyl]-methanesulfonamide] registered a melting point of 142 to 146 °C.

In turn, `O=S(=O)(Nc1cccc(Nc2nc(NC3CCCC3)c3nc[nH]c3n2)c1)C(F)(F)F` [Example 27, N-[3-(6-Cyclopentylamino-9H-purin-2-ylamino)-phenyl]-C,C,C-trifluoro-methanesulfonamide] registered a melting point of 243 to 246 °C.

In the case of `CS(=O)(=O)Nc1cccc(Nc2nc(N3CCC(O)C3)c3nc[nH]c3n2)c1` (stereo not drawn) [Example 12, N-{3-[6-(3-Hydroxy-pyrrolidin-1-yl)-9H-purin-2-ylamino]-phenyl}-methanesulfonamide], the melting point is 243 to 248 °C.

With `CN(C)c1ccc(CNc2nc(Nc3cccc(NS(C)(=O)=O)c3)nc3[nH]cnc23)cc1` [Example 20, N-{3-[6-(4-Dimethylamino-benzylamino)-9H-purin-2-ylamino]-phenyl}-methanesulfonamide], the melting point was 138 to 142 °C.

For the compound `CS(=O)(=O)Nc1cccc(Nc2nc(NC3CCCC3)c3nc[nH]c3n2)c1` [Example 37, N-[3-(6-Cyclopentylamino-9H-purin-2-ylamino)-phenyl]-methanesulfonamide], the melting point is 234 to 239 °C.

Compound `C[C@@H](Nc1nc(Nc2cccc(NS(C)(=O)=O)c2)nc2[nH]cnc12)c1ccccc1` [Example 41, N-{3-[6-((R)-1-Phenyl-ethylamino)-9H-purin-2-ylamino]-phenyl}-methanesulfonamide] registered a melting point of 136 to 139 °C.

In turn, `CN(C)c1cccc(CNc2nc(Nc3cccc(NS(C)(=O)=O)c3)nc3[nH]cnc23)c1` [Example 31, N-{3-[6-(3-Dimethylamino-benzylamino)-9H-purin-2-ylamino]-phenyl}-methanesulfonamide] returned a melting point of 148 to 151 °C.

On to `CC(C)N(CCO)c1nc(Nc2cccc(NS(C)(=O)=O)c2)nc2[nH]ccc12` [Example 87, N-(3-{4-[(2-Hydroxy-ethyl)-isopropyl-amino]-7H-pyrrolo[2,3-d]pyrimidin-2-ylamino}-phenyl)-methanesulfonamide], for which the melting point lay in the range of 129 to 132 °C.

For the origin of these results see US20080261973A1, “Sulphonamidoaniline Derivatives Being Janus Kinase Inhibitors” (Novartis AG, priority 2005, published 2008).
